The supplement of paper PMC10307832

Legend:
Test in all cases: relative viability (nuclei count vs DMSO), 5 days (fraction); higher = more cells survive
Carfilzomib + Tozasertib = compound: CC(C)C[C@H](NC(=O)[C@H](CCc1ccccc1)NC(=O)CN1CCOCC1)C(=O)N[C@@H](Cc1ccccc1)C(=O)N[C@@H](CC(C)C)C(=O)[C@@]1(C)CO1 [Carfilzomib] + Cc1cc(Nc2cc(N3CCN(C)CC3)nc(Sc3ccc(NC(=O)C4CC4)cc3)n2)n[nH]1 [Tozasertib] (partner 0.1 µM)
Summary of the method: (§1)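 Relative viability equals treated-well nuclei counts divided by vehicle-well nuclei counts. Counts came from 4× images of lung cancer cell lines grown in 1536-well plates for 5 days after pin-tool dosing on the day after seeding. Dosing used one drug alone or a fixed anchor-drug dose plus five library-drug doses (not always all listed) in √10 steps, and values are medians of duplicate plates.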

Olaparib + Phenformin = compound: O=C(c1cc(Cc2n[nH]c(=O)c3ccccc23)ccc1F)N1CCN(C(=O)C2CC2)CC1 [Olaparib] + N=C(N)NC(=N)NCCc1ccccc1 [Phenformin] (partner 250 µM)
Summary of the method: as §1

Carfilzomib + Olaparib = compound: CC(C)C[C@H](NC(=O)[C@H](CCc1ccccc1)NC(=O)CN1CCOCC1)C(=O)N[C@@H](Cc1ccccc1)C(=O)N[C@@H](CC(C)C)C(=O)[C@@]1(C)CO1 [Carfilzomib] + O=C(c1cc(Cc2n[nH]c(=O)c3ccccc23)ccc1F)N1CCN(C(=O)C2CC2)CC1 [Olaparib] (partner 8 µM)
Summary of the method: as §1

Olaparib + Dasatinib = compound: O=C(c1cc(Cc2n[nH]c(=O)c3ccccc23)ccc1F)N1CCN(C(=O)C2CC2)CC1 [Olaparib] + Cc1nc(Nc2ncc(C(=O)Nc3c(C)cccc3Cl)s2)cc(N2CCN(CCO)CC2)n1 [Dasatinib] (partner 0.075 µM)
Summary of the method: as §1

SW 900
relative viability (Carfilzomib + Tozasertib; first compound 0.001 µM): 0.508
relative viability (Carfilzomib + Tozasertib; first compound 0.003162 µM): 0.682
relative viability (Carfilzomib + Tozasertib; first compound 0.01 µM): 0.142
relative viability (Carfilzomib + Tozasertib; first compound 0.03162 µM): 0.149
relative viability (Carfilzomib + Tozasertib; first compound 0.1 µM): 0.164
relative viability (Olaparib + Phenformin; first compound 0.08 µM): 0.614
relative viability (Olaparib + Phenformin; first compound 0.253 µM): 0.525
relative viability (Olaparib + Phenformin; first compound 2.53 µM): 0.558
relative viability (Olaparib + Phenformin; first compound 8 µM): 0.555
relative viability (Carfilzomib + Olaparib; first compound 0.003162 µM): 0.756
relative viability (Carfilzomib + Olaparib; first compound 0.01 µM): 0.323
relative viability (Carfilzomib + Olaparib; first compound 0.03162 µM): 0.174
relative viability (Carfilzomib + Olaparib; first compound 0.1 µM): 0.168
relative viability (Olaparib + Dasatinib; first compound 0.08 µM): 0.57
relative viability (Olaparib + Dasatinib; first compound 0.253 µM): 0.815
relative viability (Olaparib + Dasatinib; first compound 2.53 µM): 0.624
relative viability (Olaparib + Dasatinib; first compound 8 µM): 0.615

NCI-H1651
relative viability (Carfilzomib + Tozasertib; first compound 0.001 µM): 0.626
relative viability (Carfilzomib + Tozasertib; first compound 0.003162 µM): 0.805
relative viability (Carfilzomib + Tozasertib; first compound 0.01 µM): 0.559
relative viability (Carfilzomib + Tozasertib; first compound 0.03162 µM): 0.126
relative viability (Carfilzomib + Tozasertib; first compound 0.1 µM): 0.0943
relative viability (Olaparib + Phenformin; first compound 0.08 µM): 0.365
relative viability (Olaparib + Phenformin; first compound 0.253 µM): 0.326
relative viability (Olaparib + Phenformin; first compound 2.53 µM): 0.234
relative viability (Olaparib + Phenformin; first compound 8 µM): 0.195
relative viability (Carfilzomib + Olaparib; first compound 0.001 µM): 0.184
relative viability (Carfilzomib + Olaparib; first compound 0.003162 µM): 0.188
relative viability (Carfilzomib + Olaparib; first compound 0.01 µM): 0.167
relative viability (Carfilzomib + Olaparib; first compound 0.03162 µM): 0.101
relative viability (Carfilzomib + Olaparib; first compound 0.1 µM): 0.0957
relative viability (Olaparib + Dasatinib; first compound 0.08 µM): 0.423
relative viability (Olaparib + Dasatinib; first compound 0.253 µM): 0.311
relative viability (Olaparib + Dasatinib; first compound 2.53 µM): 0.31
relative viability (Olaparib + Dasatinib; first compound 8 µM): 0.218

EKVX
relative viability (Carfilzomib + Tozasertib; first compound 0.001 µM): 0.346
relative viability (Carfilzomib + Tozasertib; first compound 0.003162 µM): 0.432
relative viability (Carfilzomib + Tozasertib; first compound 0.01 µM): 0.435
relative viability (Carfilzomib + Tozasertib; first compound 0.03162 µM): 0.34
relative viability (Carfilzomib + Tozasertib; first compound 0.1 µM): 0.281
relative viability (Olaparib + Phenformin; first compound 0.08 µM): 0.268
relative viability (Olaparib + Phenformin; first compound 0.253 µM): 0.243
relative viability (Olaparib + Phenformin; first compound 2.53 µM): 0.221
relative viability (Olaparib + Phenformin; first compound 8 µM): 0.248
relative viability (Carfilzomib + Olaparib; first compound 0.001 µM): 0.854
relative viability (Carfilzomib + Olaparib; first compound 0.003162 µM): 0.908
relative viability (Carfilzomib + Olaparib; first compound 0.01 µM): 1.02
relative viability (Carfilzomib + Olaparib; first compound 0.1 µM): 0.231
relative viability (Olaparib + Dasatinib; first compound 0.08 µM): 0.271
relative viability (Olaparib + Dasatinib; first compound 0.253 µM): 0.406
relative viability (Olaparib + Dasatinib; first compound 2.53 µM): 0.428
relative viability (Olaparib + Dasatinib; first compound 8 µM): 0.599

201T
relative viability (Carfilzomib + Tozasertib; first compound 0.001 µM): 0.957
relative viability (Carfilzomib + Tozasertib; first compound 0.003162 µM): 1
relative viability (Carfilzomib + Tozasertib; first compound 0.01 µM): 1.04
relative viability (Carfilzomib + Tozasertib; first compound 0.03162 µM): 0.993
relative viability (Carfilzomib + Tozasertib; first compound 0.1 µM): 0.754
relative viability (Olaparib + Phenformin; first compound 0.08 µM): 0.396
relative viability (Olaparib + Phenformin; first compound 0.253 µM): 0.465
relative viability (Olaparib + Phenformin; first compound 2.53 µM): 0.481
relative viability (Olaparib + Phenformin; first compound 8 µM): 0.43
relative viability (Carfilzomib + Olaparib; first compound 0.001 µM): 0.83
relative viability (Carfilzomib + Olaparib; first compound 0.003162 µM): 0.838
relative viability (Carfilzomib + Olaparib; first compound 0.01 µM): 0.856
relative viability (Carfilzomib + Olaparib; first compound 0.03162 µM): 0.907
relative viability (Carfilzomib + Olaparib; first compound 0.1 µM): 0.546
relative viability (Olaparib + Dasatinib; first compound 0.08 µM): 0.576
relative viability (Olaparib + Dasatinib; first compound 0.253 µM): 0.558
relative viability (Olaparib + Dasatinib; first compound 2.53 µM): 0.46
relative viability (Olaparib + Dasatinib; first compound 8 µM): 0.501

NCI-H2228
relative viability (Carfilzomib + Tozasertib; first compound 0.001 µM): 0.3
relative viability (Carfilzomib + Tozasertib; first compound 0.003162 µM): 0.27
relative viability (Carfilzomib + Tozasertib; first compound 0.01 µM): 0.289
relative viability (Carfilzomib + Tozasertib; first compound 0.03162 µM): 0.096
relative viability (Carfilzomib + Tozasertib; first compound 0.1 µM): 0.103
relative viability (Olaparib + Phenformin; first compound 0.08 µM): 0.333
relative viability (Olaparib + Phenformin; first compound 0.253 µM): 0.276
relative viability (Olaparib + Phenformin; first compound 2.53 µM): 0.287
relative viability (Olaparib + Phenformin; first compound 8 µM): 0.345
relative viability (Carfilzomib + Olaparib; first compound 0.001 µM): 0.838
relative viability (Carfilzomib + Olaparib; first compound 0.003162 µM): 0.813
relative viability (Carfilzomib + Olaparib; first compound 0.01 µM): 0.61
relative viability (Carfilzomib + Olaparib; first compound 0.03162 µM): 0.0953
relative viability (Carfilzomib + Olaparib; first compound 0.1 µM): 0.124
relative viability (Olaparib + Dasatinib; first compound 0.08 µM): 0.587
relative viability (Olaparib + Dasatinib; first compound 0.253 µM): 0.495
relative viability (Olaparib + Dasatinib; first compound 2.53 µM): 0.458
relative viability (Olaparib + Dasatinib; first compound 8 µM): 0.304

NCI-H2009
relative viability (Carfilzomib + Tozasertib; first compound 0.001 µM): 0.781
relative viability (Carfilzomib + Tozasertib; first compound 0.003162 µM): 0.871
relative viability (Carfilzomib + Tozasertib; first compound 0.01 µM): 0.723
relative viability (Carfilzomib + Tozasertib; first compound 0.03162 µM): 0.748
relative viability (Carfilzomib + Tozasertib; first compound 0.1 µM): 0.0938
relative viability (Olaparib + Phenformin; first compound 0.08 µM): 0.557
relative viability (Olaparib + Phenformin; first compound 0.253 µM): 0.49
relative viability (Olaparib + Phenformin; first compound 2.53 µM): 0.438
relative viability (Olaparib + Phenformin; first compound 8 µM): 0.386
relative viability (Carfilzomib + Olaparib; first compound 0.001 µM): 0.736
relative viability (Carfilzomib + Olaparib; first compound 0.003162 µM): 0.732
relative viability (Carfilzomib + Olaparib; first compound 0.01 µM): 0.729
relative viability (Carfilzomib + Olaparib; first compound 0.03162 µM): 0.631
relative viability (Carfilzomib + Olaparib; first compound 0.1 µM): 0.0565
relative viability (Olaparib + Dasatinib; first compound 0.08 µM): 0.42
relative viability (Olaparib + Dasatinib; first compound 0.253 µM): 0.279
relative viability (Olaparib + Dasatinib; first compound 2.53 µM): 0.304
relative viability (Olaparib + Dasatinib; first compound 8 µM): 0.272

NCI-H1975
relative viability (Carfilzomib + Tozasertib; first compound 0.003162 µM): 0.766
relative viability (Carfilzomib + Tozasertib; first compound 0.01 µM): 0.371
relative viability (Carfilzomib + Tozasertib; first compound 0.03162 µM): 0.0617
relative viability (Carfilzomib + Tozasertib; first compound 0.1 µM): 0.0846
relative viability (Olaparib + Phenformin; first compound 0.08 µM): 0.437
relative viability (Olaparib + Phenformin; first compound 0.253 µM): 0.385
relative viability (Olaparib + Phenformin; first compound 2.53 µM): 0.414
relative viability (Olaparib + Phenformin; first compound 8 µM): 0.408
relative viability (Carfilzomib + Olaparib; first compound 0.001 µM): 0.828
relative viability (Carfilzomib + Olaparib; first compound 0.003162 µM): 0.825
relative viability (Carfilzomib + Olaparib; first compound 0.01 µM): 0.393
relative viability (Carfilzomib + Olaparib; first compound 0.03162 µM): 0.123
relative viability (Carfilzomib + Olaparib; first compound 0.1 µM): 0.118
relative viability (Olaparib + Dasatinib; first compound 0.08 µM): 0.396
relative viability (Olaparib + Dasatinib; first compound 0.253 µM): 0.346
relative viability (Olaparib + Dasatinib; first compound 2.53 µM): 0.381
relative viability (Olaparib + Dasatinib; first compound 8 µM): 0.364

NCI-H2347
relative viability (Carfilzomib + Tozasertib; first compound 0.001 µM): 0.54
relative viability (Carfilzomib + Tozasertib; first compound 0.01 µM): 0.619
relative viability (Carfilzomib + Tozasertib; first compound 0.03162 µM): 0.493
relative viability (Carfilzomib + Tozasertib; first compound 0.1 µM): 0.151
relative viability (Olaparib + Phenformin; first compound 0.08 µM): 0.458
relative viability (Olaparib + Phenformin; first compound 0.253 µM): 0.339
relative viability (Olaparib + Phenformin; first compound 2.53 µM): 0.313
relative viability (Olaparib + Phenformin; first compound 8 µM): 0.347
relative viability (Carfilzomib + Olaparib; first compound 0.001 µM): 0.502
relative viability (Carfilzomib + Olaparib; first compound 0.003162 µM): 0.587
relative viability (Carfilzomib + Olaparib; first compound 0.01 µM): 0.564
relative viability (Carfilzomib + Olaparib; first compound 0.03162 µM): 0.503
relative viability (Carfilzomib + Olaparib; first compound 0.1 µM): 0.363
relative viability (Olaparib + Dasatinib; first compound 0.08 µM): 0.335
relative viability (Olaparib + Dasatinib; first compound 0.253 µM): 0.292
relative viability (Olaparib + Dasatinib; first compound 2.53 µM): 0.293
relative viability (Olaparib + Dasatinib; first compound 8 µM): 0.294

PC-14
relative viability (Carfilzomib + Tozasertib; first compound 0.001 µM): 0.575
relative viability (Carfilzomib + Tozasertib; first compound 0.003162 µM): 0.677
relative viability (Carfilzomib + Tozasertib; first compound 0.01 µM): 0.69
relative viability (Carfilzomib + Tozasertib; first compound 0.03162 µM): 0.545
relative viability (Carfilzomib + Tozasertib; first compound 0.1 µM): 0.0359
relative viability (Olaparib + Phenformin; first compound 0.08 µM): 0.79
relative viability (Olaparib + Phenformin; first compound 0.253 µM): 0.384
relative viability (Olaparib + Phenformin; first compound 2.53 µM): 0.609
relative viability (Olaparib + Phenformin; first compound 8 µM): 0.519
relative viability (Carfilzomib + Olaparib; first compound 0.001 µM): 0.281
relative viability (Carfilzomib + Olaparib; first compound 0.003162 µM): 0.334
relative viability (Carfilzomib + Olaparib; first compound 0.01 µM): 0.243
relative viability (Carfilzomib + Olaparib; first compound 0.03162 µM): 0.0393
relative viability (Carfilzomib + Olaparib; first compound 0.1 µM): 0.0576
relative viability (Olaparib + Dasatinib; first compound 0.08 µM): 0.333
relative viability (Olaparib + Dasatinib; first compound 0.253 µM): 0.231
relative viability (Olaparib + Dasatinib; first compound 2.53 µM): 0.311
relative viability (Olaparib + Dasatinib; first compound 8 µM): 0.205
